Test results reported in patent US11459313B2, “Aziridinyl and amino dimeric naphthoquinone compounds and use for acute myeloid leukemia” (University of Maryland, Baltimore, priority 2016, dated 2022).
“Also recorded” adds a separate entry of the source. Read-outs that look alike come from different tables or passages of the source.

What was measured:
[1] = test system: AML blasts; experiment: γH2AX foci in treated AML blasts; format: cell-based
[2] = test system: MV4-11 cells; experiment: WST-1 cell proliferation assay, MV4-11; format: cell-based, human; details: Homo sapiens, cell proliferation
Protocol: (§1) Cell lines were seeded into 96-well plates the afternoon prior to treatment. Approximately 18 hours later, bis and mono-aziridine dimeric naphthoquinone compounds were semi-serially diluted in dimethyl sulfoxide (DMSO) and then growth medium, and added to cells. Plates were incubated for 72 hours prior to addition of WST-1 (Promega®). Plates were read after 4 additional hours of incubation at 37° C. using a Bio-Tek Synergy® HT plate reader (Bio-Tek®). Data were analyzed and graphed using GraphPad Prism® Software (Graph Pad®).
(§2) Primary AML cells from patients and cell lines were seeded into 96-well plates the afternoon prior to treatment. Eighteen hours later, amino-dimeric naphthoquinone Compounds 106, 101, and 114 were semi-serially diluted in dimethyl sulfoxide (DMSO) and then growth medium, and added to the cells. In order to quantitate proliferation of metabolically active cells, plates were incubated for 72 hours for cell lines and 48 hours for primary AML cells prior to addition of water-soluble tetrazolium (WST-1) (Clontech®). Plates were read after four additional hours of incubation at 37° C. using a Bio-Tek Synergy® HT plate reader (Bio-Tele®). Data were analyzed and graphed using GraphPad Prism® Software (GraphPad®). IC50 was defined as the concentration that decreases viable cell numbers by 50%. IC50 values were calculated as mean±standard deviation from at least two independent experiments. If availability of primary blasts was limited, the IC50 was obtained from a single experiment.

[3] = biological target: T1, IDO-2 (Homo sapiens, UniProt Q6ZQW0); experiment: IDO-2 activity; format: biochemical
T1 sequence (Q6ZQW0 1-407): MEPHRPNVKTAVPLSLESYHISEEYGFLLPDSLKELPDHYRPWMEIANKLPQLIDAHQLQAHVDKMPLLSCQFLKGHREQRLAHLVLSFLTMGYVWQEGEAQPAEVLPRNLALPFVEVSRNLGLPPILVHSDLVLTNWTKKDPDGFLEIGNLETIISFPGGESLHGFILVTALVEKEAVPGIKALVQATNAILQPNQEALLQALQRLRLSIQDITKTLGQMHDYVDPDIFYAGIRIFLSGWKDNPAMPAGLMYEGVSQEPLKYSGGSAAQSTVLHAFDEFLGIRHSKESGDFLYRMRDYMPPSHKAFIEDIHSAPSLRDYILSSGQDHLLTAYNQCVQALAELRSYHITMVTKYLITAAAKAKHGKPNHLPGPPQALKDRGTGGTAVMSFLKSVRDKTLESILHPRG
Text: (§3) Methods were as described and according to known methods.

[4] = biological target: tryptophan-2,3-dioxygenase (TDO) (Homo sapiens, UniProt P48775); experiment: TDO activity; format: biochemical
Text: as §3

[5] = test system: AML cells; experiment: Clonogenicity of AML cells; format: cell-based, human
Protocol: MOLM-14 and THP-1 were treated with either DMSO control or mono-aziridine dimeric naphthoquinone or bis-aziridinyl dimeric naphthoquinone compounds at concentrations of 0.1, 1, 10 and 100 μM (micromolar) for 24 hours. The cells then were washed with growth medium and resuspended in growth medium and methylcellulose with or without DMSO or the treatment compounds. After 7 or 13 days (MOLM-14 or THP-1, respectively), treatment was terminated by addition of 1.0 mg/mL, iodonitrotetrazolium chloride (INT; Sigma Aldrich®) and read 24 hours later with an automated colony counter (Symbiosis®). Data were analyzed and graphed using GraphPad Prism® software.
(§4) Two AML cell lines (MV4-11 & MOLM14) were treated with increasing doses of the clinically used naphthoquinones, atovaquone and vitamin K, as well as with Compound 102; and IC50 curves were generated with respect to cell proliferation as described above.

[6] = test system: AML cells; experiment: Cell proliferation assays, AML cells (lines not given singly); format: cell-based, human; details: MV4-11 and MOLM14, proliferation IC50
Protocol: as §2, §4

[7] = test system: MV4-11 cells; experiment: Cell survival assay (trypan blue exclusion), MV4-11; format: cell-based, human
Protocol: MOLM-.14 and THP-1 cells were seeded in 96-well plates and treated with DMSO, mono- and bis-aziridinyl dimeric naphthoquinone compounds, or dimethylamine dimeric naphthoquinone Compound 114 as previously described. Cells were incubated for 72 hours, and then counted using trypan blue exclusion on the Countess® automated cell counter (Life Technologies®). Cell counts were performed in duplicates, and the averages were graphed using GraphPad Prism® software (GraphPad®).
Cell survival was determined using trypan blue exclusion as described above, in which cells are plated and the following day treated similarly to the proliferation assay. Compound 102 (also referred to here as “66”) was effective in decreasing cell number at increasing concentrations of compound in MV4-11 cells.

[8] = biological target: IDO-1 (Homo sapiens, UniProt P14902); experiment: IDO1 activity assay; format: biochemical
Text: as §3

[9] = test system: MV4-11 cells; experiment: Cellular reactive oxygen species (H2DCFA), MV4-11; format: cell-based, human
Protocol: MOLM-14 and THP-1 cells in logarithmic growth phase were centrifuged and resuspended in PBS at one million cells per milliliter (mL) of medium. Cells were preloaded with 2′,7′-dichlorodihydrofluorescein diacetate (H2DCFA, Life Technologies®) at a final concentration of 2 μM and incubated at 37° C. in the dark for 25 minutes. Cells were centrifuged and resuspended at one million per mL in phenol red-free RPMI plus 10% FBS and incubated at 37° C. in the dark for 25 minutes. Treatments were prepared at 2× concentrations of […] in complete phenol red-free RPMI and added to each well to yield 1× concentrations of 20, 10, 2, or 0.5 μM. Cells were incubated in the dark at 37° C. and measurement of ROS was performed with a Bio-tek® Synergy HT plate reader at various time points post treatment.
as §4
The amount of reactive oxygen species (ROS) that cells produced upon treatment with Compound 102 then was examined. See results in FIG. 9B. The cells were loaded with the ROS dye H2DCFA and subsequently plated into 96-well plates. […] The relative fluorescence units (RFU) were read at various time points. […]

[10] = test system: MOLM-14 cells; experiment: WST-1 cell proliferation assay, MOLM-14; format: cell-based, human; details: Homo sapiens, cell proliferation
Protocol: as §1, §2
To investigate antiproliferative activity of amino-dimeric naphthoquinones against AML cells, an MTT-like cell proliferation assay was performed in the AML cell lines using WST-1 (water soluble tetrazolium salts; Promega®). MOLM-14 and AML-D cells, as well as normal hematopoietic bone marrow cells from a healthy donor, were exposed to a range of concentrations of Compound 101. Human leukemia cells were cultured in the presence of the compound for 72 hours (48 hours for primary cells) and WST-1 reagent was then added. The cells then were monitored for cell growth or the number of cells proliferating and the IC50 calculated. The IC50 is the concentration at which 50% of the cells are not proliferating compared to control cells treated with vehicle. See FIG. 2A, FIG. 2B, and FIG. 2C for representative graphs of these IC50 determinations.

IDO-1, sequence (P14902 whole entry, species assumed): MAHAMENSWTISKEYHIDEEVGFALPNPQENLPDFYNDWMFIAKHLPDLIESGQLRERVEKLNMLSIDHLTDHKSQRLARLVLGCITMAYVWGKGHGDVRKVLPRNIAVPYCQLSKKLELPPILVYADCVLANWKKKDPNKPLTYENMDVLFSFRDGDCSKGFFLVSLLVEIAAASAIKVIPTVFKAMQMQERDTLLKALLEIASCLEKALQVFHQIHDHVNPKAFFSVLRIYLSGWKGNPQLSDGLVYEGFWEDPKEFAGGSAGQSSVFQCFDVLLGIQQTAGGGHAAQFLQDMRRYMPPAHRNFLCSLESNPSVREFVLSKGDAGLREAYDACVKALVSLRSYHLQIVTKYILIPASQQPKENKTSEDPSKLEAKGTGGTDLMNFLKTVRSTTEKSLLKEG
tryptophan-2,3-dioxygenase (TDO), sequence (P48775 whole entry, species assumed): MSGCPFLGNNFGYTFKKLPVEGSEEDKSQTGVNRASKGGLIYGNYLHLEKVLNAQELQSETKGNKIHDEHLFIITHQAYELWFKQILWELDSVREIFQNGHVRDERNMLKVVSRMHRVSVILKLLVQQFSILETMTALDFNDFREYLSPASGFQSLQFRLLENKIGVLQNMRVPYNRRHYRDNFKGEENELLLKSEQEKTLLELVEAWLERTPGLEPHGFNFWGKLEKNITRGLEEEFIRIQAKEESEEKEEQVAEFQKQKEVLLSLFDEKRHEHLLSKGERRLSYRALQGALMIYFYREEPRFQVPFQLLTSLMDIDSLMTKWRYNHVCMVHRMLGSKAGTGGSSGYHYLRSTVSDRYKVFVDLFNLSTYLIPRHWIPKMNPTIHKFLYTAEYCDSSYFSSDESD

IC50 ([2]; MV4-11, Table 2, read-out: MV411 IC50): 0.2 ± 0.2 µM
IC50 ([2]; MV4-11, Table 3, read-out: MV411 IC50): 0.2 ± 0.2 µM
IC50 ([2]; MV4-11, Table 7, read-out: IC50 (μM) MV411): 0.2 µM
inhibition of IDO-2 [3]: not
inhibition of TDO [4]: not
inhibition at 1 µM [8]: 37%
inhibition at 10 µM [8]: 79%
IC50 ([10]; MOLM-14, Table 2, read-out: MOLM14 IC50): 0.16 ± 0.01 µM
IC50 ([10]; MOLM-14, Table 3, read-out: MOLM14 IC50): 0.16 ± 0.01 µM
IC50 ([10]; MOLM-14, Table 7, read-out: IC50 (μM) MOLM-14): 0.16 µM
SMILES: O=C1C(NCCO)=C(C2=C(NCCO)C(=O)c3ccccc3C2=O)C(=O)c2ccccc21 [Compound 102, 3,3′-[(2-hydroxyethyl)amino]-2,2′-binaphthalenyl-1,1′,4,4′-tetrone]
DNA damage (γH2AX foci) [1]: concomitant increase in DNA damage
inhibition of clonogenicity of AML cells [5]: effectively inhibited clonogenicity of AML cells in a dose-dependent manner; also recorded: potent (nanomolar) inhibition of colony formation
potency relative to other naphthoquinones (atovaquone, vitamin K) against AML cells [6]: 25-30 fold
cell survival, MV4-11 [7]: dose-dependent reduction in cell survival
ROS production ([9]; Example 13, cells not named in the block, 2-6 hours): dose-dependent increase in ROS production
ROS levels, MV4-11 ([9]; at IC50 concentration): ROS levels significantly peaked after 2 hours and returned to baseline within 24 hours
